In patent publication US12139520B2 (priority 2020, dated 2024):
Bridge positions count the residues as written; N and C are the ends. Square brackets hold non-standard residues; d marks the D form. Peptide text beside a SMILES is read from it. Hyp = O=C(O)[C@@H]1C[C@@H](O)CN1; Cit = NC(=O)NCCC[C@H](N)C(=O)O

Tests used:
hAMY3 receptor = biological target: T1, hAMY3 receptor (Homo sapiens, UniProt O60896+P30988); test: cAMP assay for in vitro receptor activation, hAMY3-R; assay type: cell-based; conditions: cAMP assay, hAMY3 receptor; read-out: hAMY3R EC50
T1 sequence (P30988 25-474): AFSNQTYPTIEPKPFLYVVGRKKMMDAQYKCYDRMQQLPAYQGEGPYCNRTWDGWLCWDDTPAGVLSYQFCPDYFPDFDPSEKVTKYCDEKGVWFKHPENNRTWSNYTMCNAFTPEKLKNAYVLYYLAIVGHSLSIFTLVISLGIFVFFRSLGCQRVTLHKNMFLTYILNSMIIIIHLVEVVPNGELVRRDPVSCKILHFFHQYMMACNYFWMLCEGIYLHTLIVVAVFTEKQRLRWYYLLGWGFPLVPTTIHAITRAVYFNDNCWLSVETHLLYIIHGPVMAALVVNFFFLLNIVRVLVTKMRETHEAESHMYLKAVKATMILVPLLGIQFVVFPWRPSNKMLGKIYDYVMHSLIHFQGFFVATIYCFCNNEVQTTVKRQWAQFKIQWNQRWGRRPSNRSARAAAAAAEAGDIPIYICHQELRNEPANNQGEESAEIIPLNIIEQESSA
T1 sequence (O60896 24-148 partner): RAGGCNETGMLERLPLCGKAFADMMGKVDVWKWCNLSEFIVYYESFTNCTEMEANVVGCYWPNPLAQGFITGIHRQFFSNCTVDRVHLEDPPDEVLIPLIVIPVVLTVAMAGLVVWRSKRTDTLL
How it was run: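 Receptor activation was measured as cAMP accumulation in a monoclonal cell line stably overexpressing hAMY3. Stimulation with graded doses lasted 30 min at room temperature in the presence of 0.5 mM IBMX, with human amylin as positive control.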

[1] = Physical stability of peptide analogues (Thioflavin T fibrillation); assay type: physicochemical; conditions: maximum ThT signal normalized between hAMY maximum and buffer background; 40° C., shaking, four days; pH 7 per table title
How it was run: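 1 h in 50 mM NaOAc pH 4 / 50 mM NaPi pH 7; + ThT 4 μM final; 40 °C, 700 rpm linear shake 5 min pre-read; ex 450, em 480 nm q10 min × 4 d; LOESS smoothing; max signal normalised to hAMY max vs buffer blank.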

| Compound | EC50 (hAMY3 receptor) | Max ThT signal (%) [1] |
| --- | --- | --- |
| CC[C@H](C)[C@H](NC(=O)[C@H](CCC(N)=O)NC(=O)[C@H](Cc1c[nH]cn1)NC(=O)[C@H](C)NC(=O)[C@H](CC(C)C)NC(=O)[C@H](CCCNC(=N)N)NC(=O)[C@H](CCC(N)=O)NC(=O)[C@@H](NC(=O)[C@@H](NC(=O)[C@@H]1CSSC[C@H](NC(=O)CN)C(=O)N[C@@H](CCCNC(=N)N)C(=O)N[C@@H](Cc2ccccc2)C(=O)NCC(=O)N[C@@H]([C@@H](C)O)C(=O)N1)[C@@H](C)O)C(C)C)C(=O)N[C@@H](Cc1ccc(O)cc1)C(=O)N[C@@H](CCC(N)=O)C(=O)N[C@@H](Cc1ccccc1)C(=O)N[C@H](C(=O)N[C@@H](CC(=O)O)C(=O)N[C@@H](CCCCN)C(=O)N[C@@H](CC(=O)O)C(=O)N[C@@H](CCCCN)C(=O)N[C@@H](CC(=O)O)C(=O)N[C@@H](CC(N)=O)C(=O)N[C@H](C(=O)N[C@@H](C)C(=O)N1CCC[C@H]1C(=O)N[C@@H](CCCNC(=N)N)C(=O)N[C@H](C(=O)N[C@@H](CC(N)=O)C(=O)N[C@H](C(=O)N[C@@H](CO)C(=O)N1CCC[C@H]1C(=O)N[C@@H](CCC(N)=O)C(=O)NCC(=O)N1C[C@H](O)C[C@H]1C(N)=O)[C@@H](C)CC)[C@@H](C)O)C(C)C)[C@@H](C)O [compound 141] (H-GCRFGTCTVQRLAHQIYQFTDKDKDNVAPRTNISPQG[Hyp]-NH2; disulfide 2-7; N-terminus assumed) | 0.036 nM | 3.200% |
| CC[C@H](C)[C@H](NC(=O)[C@H](CCC(N)=O)NC(=O)[C@H](Cc1c[nH]cn1)NC(=O)[C@H](C)NC(=O)[C@H](CC(C)C)NC(=O)[C@H](CCCNC(N)=O)NC(=O)[C@H](CCC(N)=O)NC(=O)[C@@H](NC(=O)[C@@H](NC(=O)[C@@H]1CSSC[C@H](NC(=O)CN)C(=O)N[C@@H](CCCNC(=N)N)C(=O)N[C@@H](Cc2ccccc2)C(=O)NCC(=O)N[C@@H]([C@@H](C)O)C(=O)N1)[C@@H](C)O)C(C)C)C(=O)N[C@@H](Cc1ccc(O)cc1)C(=O)N[C@@H](CCC(N)=O)C(=O)N[C@@H](Cc1ccccc1)C(=O)N[C@H](C(=O)N[C@@H](CC(=O)O)C(=O)N[C@@H](CCCCN)C(=O)N[C@@H](CC(=O)O)C(=O)N[C@@H](CCCCN)C(=O)N[C@@H](CC(=O)O)C(=O)N[C@@H](CC(N)=O)C(=O)N[C@H](C(=O)N[C@@H](C)C(=O)N1CCC[C@H]1C(=O)N[C@@H](CCCNC(=N)N)C(=O)N[C@@H](CO)C(=O)N[C@@H](CC(N)=O)C(=O)N[C@H](C(=O)NCC(=O)N1CCC[C@H]1C(=O)N[C@@H](CCC(N)=O)C(=O)NCC(=O)N1C[C@H](O)C[C@H]1C(N)=O)C(C)C)C(C)C)[C@@H](C)O [compound 289] (H-GCRFGTCTVQ[Cit]LAHQIYQFTDKDKDNVAPRSNVGPQG[Hyp]-NH2; disulfide 2-7; N-terminus assumed) | 0.005 nM | 21.150% |
| CC[C@H](C)[C@H](NC(=O)[C@H](CC(N)=O)NC(=O)[C@H](CO)NC(=O)[C@H](CCCNC(=N)N)NC(=O)[C@@H]1CCCN1C(=O)[C@H](C)NC(=O)[C@@H](NC(=O)[C@H](CC(N)=O)NC(=O)[C@H](CC(=O)O)NC(=O)[C@H](CCCCN)NC(=O)[C@H](CC(=O)O)NC(=O)[C@H](CCCCN)NC(=O)[C@H](CC(=O)O)NC(=O)[C@@H](NC(=O)[C@H](Cc1ccccc1)NC(=O)[C@H](CCC(N)=O)NC(=O)[C@H](Cc1ccc(O)cc1)NC(=O)[C@@H](NC(=O)[C@H](CCC(N)=O)NC(=O)[C@H](Cc1c[nH]cn1)NC(=O)[C@H](C)NC(=O)[C@H](CC(C)C)NC(=O)[C@H](CCCNC(=N)N)NC(=O)[C@H](CCC(N)=O)NC(=O)[C@@H](NC(=O)[C@@H](NC(=O)[C@@H]1CSSC[C@H](NC(=O)CN)C(=O)N[C@@H](CCCNC(=N)N)C(=O)N[C@@H]([C@@H](C)O)C(=O)NCC(=O)N[C@@H]([C@@H](C)O)C(=O)N1)[C@@H](C)O)C(C)C)[C@@H](C)CC)[C@@H](C)O)C(C)C)C(=O)NCC(=O)N1CCC[C@H]1C(=O)N[C@@H](CCC(N)=O)C(=O)NCC(=O)N1C[C@H](O)C[C@H]1C(N)=O [compound 165] (H-GCRTGTCTVQRLAHQIYQFTDKDKDNVAPRSNIGPQG[Hyp]-NH2; disulfide 2-7; N-terminus assumed) | 0.054 nM | 4.800% |
| CC[C@H](C)[C@H](NC(=O)[C@H](CCC(N)=O)NC(=O)[C@H](Cc1c[nH]cn1)NC(=O)[C@H](C)NC(=O)[C@H](CC(C)C)NC(=O)[C@H](CCCNC(N)=O)NC(=O)[C@H](CCC(N)=O)NC(=O)[C@@H](NC(=O)[C@@H](NC(=O)[C@@H]1CSSC[C@H](NC(=O)CN)C(=O)N[C@@H](CCCNC(=N)N)C(=O)N[C@@H](Cc2ccccc2)C(=O)NCC(=O)N[C@@H]([C@@H](C)O)C(=O)N1)[C@@H](C)O)C(C)C)C(=O)N[C@@H](Cc1ccc(O)cc1)C(=O)N[C@@H](CCC(N)=O)C(=O)N[C@@H](Cc1ccccc1)C(=O)N[C@H](C(=O)N[C@@H](CC(=O)O)C(=O)N[C@@H](CCCCN)C(=O)N[C@@H](CC(=O)O)C(=O)N[C@@H](CCCCN)C(=O)N[C@@H](CC(=O)O)C(=O)N[C@@H](CC(N)=O)C(=O)N[C@H](C(=O)N[C@@H](C)C(=O)N1CCC[C@H]1C(=O)N[C@@H](CCCNC(=N)N)C(=O)N[C@H](C(=O)N[C@@H](CC(N)=O)C(=O)N[C@H](C(=O)N[C@@H](CO)C(=O)N1CCC[C@H]1C(=O)N[C@@H](CCC(N)=O)C(=O)NCC(=O)N[C@@H](Cc1ccc(O)cc1)C(N)=O)C(C)C)[C@@H](C)O)C(C)C)[C@@H](C)O [compound 278] (H-GCRFGTCTVQ[Cit]LAHQIYQFTDKDKDNVAPRTNVSPQGY-NH2; disulfide 2-7; N-terminus assumed) | 0.011 nM | 13.350% |

Continued by falling EC50 (hAMY3 receptor), values first:

| EC50 (hAMY3 receptor) | Max ThT signal (%) [1] | Compound |
| --- | --- | --- |
| 0.036 nM | 8.800% | CC[C@H](C)[C@H](NC(=O)[C@H](CCC(N)=O)NC(=O)[C@H](Cc1c[nH]cn1)NC(=O)[C@H](C)NC(=O)[C@H](CC(C)C)NC(=O)[C@H](CCCNC(=N)N)NC(=O)[C@H](CCC(N)=O)NC(=O)[C@@H](NC(=O)[C@@H](NC(=O)[C@@H]1CSSC[C@H](NC(=O)CN)C(=O)N[C@@H](CCCNC(=N)N)C(=O)N[C@@H](Cc2ccccc2)C(=O)NCC(=O)N[C@@H]([C@@H](C)O)C(=O)N1)[C@@H](C)O)C(C)C)C(=O)N[C@@H](Cc1ccc(O)cc1)C(=O)N[C@@H](CCC(N)=O)C(=O)N[C@@H](Cc1ccccc1)C(=O)N[C@H](C(=O)N[C@@H](CC(=O)O)C(=O)N[C@@H](CCCCN)C(=O)N[C@@H](CC(=O)O)C(=O)N[C@@H](CCCCN)C(=O)N[C@@H](CC(=O)O)C(=O)N[C@@H](CC(N)=O)C(=O)N[C@H](C(=O)N[C@@H](C)C(=O)N1CCC[C@H]1C(=O)N[C@@H](CCCNC(=N)N)C(=O)N[C@H](C(=O)N[C@@H](CCCCN)C(=O)N[C@H](C(=O)N[C@@H](CO)C(=O)N1CCC[C@H]1C(=O)N[C@@H](CC(N)=O)C(=O)NCC(=O)N[C@@H](Cc1ccc(O)cc1)C(N)=O)C(C)C)[C@@H](C)O)C(C)C)[C@@H](C)O [compound 385] (H-GCRFGTCTVQRLAHQIYQFTDKDKDNVAPRTKVSPNGY-NH2; disulfide 2-7; N-terminus assumed) |
| 0.013 nM | 3.300% | CC[C@H](C)[C@H](NC(=O)[C@H](CCC(N)=O)NC(=O)[C@H](Cc1c[nH]cn1)NC(=O)[C@H](C)NC(=O)[C@H](CC(C)C)NC(=O)[C@H](CCCNC(=N)N)NC(=O)[C@H](CCC(N)=O)NC(=O)[C@@H](NC(=O)[C@@H](NC(=O)[C@@H]1CSSC[C@H](NC(=O)CN)C(=O)N[C@@H](CCCNC(=N)N)C(=O)N[C@@H](Cc2ccccc2)C(=O)NCC(=O)N[C@@H]([C@@H](C)O)C(=O)N1)[C@@H](C)O)C(C)C)C(=O)N[C@@H](Cc1ccc(O)cc1)C(=O)N[C@@H](CCC(N)=O)C(=O)N[C@@H](Cc1ccccc1)C(=O)N[C@H](C(=O)N[C@@H](CC(=O)O)C(=O)N[C@@H](CCCCN)C(=O)N[C@@H](CC(=O)O)C(=O)N[C@@H](CCCCN)C(=O)N[C@@H](CC(=O)O)C(=O)N[C@@H](CC(N)=O)C(=O)N[C@H](C(=O)N[C@@H](C)C(=O)N1CCC[C@H]1C(=O)N[C@@H](CCCNC(=N)N)C(=O)N[C@H](C(=O)N[C@@H](CC(N)=O)C(=O)N[C@H](C(=O)N[C@@H](CO)C(=O)N1CCC[C@H]1C(=O)N[C@@H](CC(N)=O)C(=O)NCC(=O)N[C@@H](Cc1ccc(O)cc1)C(N)=O)[C@@H](C)CC)[C@@H](C)O)C(C)C)[C@@H](C)O [compound 366] (H-GCRFGTCTVQRLAHQIYQFTDKDKDNVAPRTNISPNGY-NH2; disulfide 2-7; N-terminus assumed) |
